# Test results: a melting point compilation (Tetko et al.; mined from patent text by program, amines drawn as free bases though some values may be those of a salt)
# Residues, ends and D or L forms follow the SMILES beside them. *: point of attachment. Boc = CC(C)(C)OC(=O)*
row,SMILES,melting point [°C]
1,Fc1ccc(Cn2c(NC3CCN(CCNCCc4c[nH]c5ccccc45)CC3)nc3ccccc32)cc1,170
2,CCCCCCCCCC(=O)Nc1ccc(C=C(C#N)C(=O)OCC)cc1,76
3,CCCCCCCCCCCCCCCCCC(=O)ON1C(=O)c2ccccc2C1=O,76 to 80
4,CCCCNc1nc(C)no1,62 to 65
5,CC(=NO)c1ccc2c(c1)N(C(=O)OC(C)(C)C)CCC2,134 to 137
6,COc1ccc(CN(c2ccc(F)c(Cl)c2)c2ncnc3cc(OCCCN4CCOCC4)c([N+](=O)[O-])cc23)cc1OC,129 to 132
7,CC(=CC(=O)c1ccncc1)N(C)C,88 to 89
8,CCOc1ccc2nc(N)c3nc4n(c3c2c1)C(C)COC4 (stereo not drawn),187 to 188
9,Cc1nc(-n2cc(CCC3CCCCC3)nn2)sc1C(=O)NCc1ccccc1,82 to 84
10,CC(=O)c1cc(OCC2CO2)ccc1OCc1ccccc1 (stereo not drawn),45 to 48
11,CC(C)(C)OC(=O)N1CCn2c(cc3ccccc32)C1,103 to 105
12,Cc1cc(C)c(Nc2nc(C)ccc2S(=O)(=O)c2ccc(OCc3ccc(C#N)cc3)cc2)c(C)c1,208 to 210
13,CC(=O)OC1Cc2ccccc2N(C(N)=O)c2ccccc21 (stereo not drawn),185
14,CC(C)(C)OC(=O)NCC(=O)NCC(=O)NCC(=O)O (Boc-Gly-Gly-Gly-OH),115 to 120
15,C=Cc1ccc(Nc2nc(Cl)nc(OC)n2)cc1,118 to 122
16,COCc1c(-c2ccncc2)[nH]c(-c2ccncc2)c1C(C)=O,154 to 156
17,Cc1cccc(COc2cccc(OCc3coc(-c4cccc(F)c4)n3)c2)c1C(=O)O,152 to 154
18,CCc1c(C(=O)O)[nH]c2c1C(=O)CC(C)(C)C2,> 198
19,Cc1nc(-c2ccccc2)sc1C(=O)NCc1ccc(OC(C)(C)C(=O)O)cc1,179
20,Cc1nc(C(=O)NCCO[N+](=O)[O-])c(C)s1,114 to 116
21,N#CC1Cc2cc3c(cc21)NCC3 (stereo not drawn),85 to 87
22,COc1ccccc1-c1cnc(-c2ccccc2)[nH]c1=O,245 to 247
23,CCCc1c(S)ccc2c(C)c(CC(=O)OC)c(=O)oc12,131 to 132
24,CCCCCCc1ccnc(-c2ccc(C(N)=O)cc2)n1,232 to 233
25,Cc1ccccc1-n1c(CSc2ncnc3[nH]cnc23)nc2cccc(Cl)c2c1=O,214

row,SMILES,melting point [°C]
1,S=c1c2cccnc2c(-c2cccc(Cl)c2)nn1Cc1ccccc1,132
2,Cc1cccc(-c2ccc(S(=O)(=O)N3c4ccccc4CC3C(=O)O)cc2)c1 (stereo not drawn),123 to 128
3,CN1CCC(c2cccc3c2C[C@H](NC(=O)c2ccc(C(F)(F)F)cc2)CC3)CC1,163 to 166
4,C=C(C)CNc1cc(C)nc2cn[nH]c12,161 to 164
5,O=C(O)Cc1cc(OCc2ccc3ccccc3n2)ccc1Nc1c(Cl)cccc1Cl,162
6,COc1ccc(-c2sc(-c3ccc(OC)s3)c3c2OCCO3)s1,101
7,COc1cc(Sc2ccncc2)cc2ccoc12,81 to 83
8,O=C(Cc1ccc(-n2ccnc2)cc1)NOc1ccccn1,110
9,COc1c(OS(=O)(=O)c2ccc(C)cc2)cc2c(c1OC)C1=C(CCC1)C(N1C(=O)c3ccccc3C1=O)CC2 (stereo not drawn),139
10,CCn1c(=O)c2[nH]c(/C=C/c3ccc(N(C)C)cc3)nc2n(CC)c1=O,> 300
11,CCOCC(COCC)Oc1ccc(/C=C/C(=O)O)c(Oc2ncc(C(F)(F)F)cc2Cl)c1,62 to 63
12,CC(=O)Oc1cccc2c1CCNC2=O,189 to 193
13,O=C1c2ccccc2CCc2cccnc21,118 to 120
14,C=CC(=O)Nc1cccc(-c2ccnc3c(C(=O)c4cccs4)cnn23)c1,192 to 194
15,Cc1ncn(Nc2cccc(Cl)c2)c1C,146
16,COc1nc(-c2ccccc2)c(-c2ccc(=O)n(C(C)C)n2)cc1C#N,187 to 189
17,COc1cc2c(cc1OCc1ccccc1)C(C#N)(Sc1ccc(Cl)cc1)C2 (stereo not drawn),114 to 115
18,COc1cc2[nH]c(N(C)Cc3cccc(N4CCCC4=O)c3)nc(=O)c2c(OC)c1OC,166
19,COc1cc2c(cc1OC)C1=NNC(c3ccc(Cl)cc3)C1CCC2 (stereo not drawn),160 to 163
20,COc1ncc(-c2cc(N3CCOCC3)nc(-n3c(C(F)F)nc4c(OC)cccc43)n2)cn1,238 to 241
21,Cn1nc(C(=O)NCc2ccc(Cl)cc2)c(=O)c2cc(C#CCO)ccc21,229 to 231
22,CCN(N)c1cnn(-c2cccc(C(F)(F)F)c2)c(=O)c1,108 to 110
23,O=C(CCCCl)Nc1cccc(Cc2n[nH]c(=O)c3ccccc23)c1,180 to 184
24,COc1ccc2c(c1)C13CCN(C#N)C(C2)C1C(C)CC(=O)C3 (stereo not drawn),202 to 205
25,COc1ccc(-c2cccs2)cc1,111

row,SMILES,melting point [°C]
1,COc1cc2ncnc(NC3=CC(=O)C(N(C)c4ccccc4)=CC3=O)c2cc1OC,204 to 206
2,C#CC1(OC(=O)c2ccccc2)C(COC(=O)c2ccc(Cl)cc2)OC(n2ccc(=O)[nH]c2=O)C1OC(=O)c1ccccc1 (stereo not drawn),158 to 160
3,CC(C)(C)OC(=O)N1CCC2(CC1)CC(CCc1ccccc1)=NO2,121 to 124
4,COC(=O)c1cc(-n2c(=O)c3c(n(C)c2=O)CCC3)c(F)cc1Cl,138 to 141
5,COC(=O)Cc1ccc(OCCNC(=O)C2Cc3ccccc3N2S(=O)(=O)c2ccc(-c3ccc(F)cc3F)cc2)cc1 (stereo not drawn),60 to 64
6,CCCCc1nn(-c2ccccc2C(F)(F)F)c(=O)n1Cc1ccc(-c2ccccc2S(=O)(=O)NC(=O)c2ccccc2)cc1,91 to 93
7,O=C1Cc2c(OCCNCc3ccccc3)ccc(Cl)c2N1,161 to 163
8,COc1ccc(OC(C)=O)c2ccccc12,51 to 53
9,CC(O)Cc1cc([N+](=O)[O-])cc(N)c1N (stereo not drawn),174
10,Cc1cn(Cc2ccccc2[N+](=O)[O-])c(=O)o1,82.9 to 83.9
11,Cn1cc(C(=O)NCc2ccc(Cl)cc2)c(=O)c2cc(CN3CC4CC3CO4)ccc21 (stereo not drawn),162 to 163
12,O=[N+]([O-])c1c(O)c(O)cc2cc(N=Nc3ccccc3)ccc12,238 to 244
13,CCOC(=O)COc1ccc(OCC)cc1C(Nc1ccc(C(=N)NC(=O)OC(C)(C)C)cc1)C(=O)OCC (racemic),241
14,OCCN1CCC(=C2c3ccccc3CCn3ncnc32)CC1,154
15,COc1cc2ncc(C#N)c(Nc3cc(Cl)c(O)c(Cl)c3)c2cc1OC,> 250
16,O=C1NC(c2c[nH]c3ccccc23)C(=O)N1CCCN1CCCCC1 (stereo not drawn),233 to 234
17,Cc1cc(Cl)ccc1Oc1ccc([N+](=O)[O-])cc1C#N,144 to 146
18,CC(C)(C)CC(C)(C)Nc1nc(NC(C)(C)CC(C)(C)C)nc(N2CC3CCC(CC3)C2)n1,126 to 127
19,O=C(Cl)Cc1ccccc1NS(=O)(=O)C(F)(F)F,94 to 95
20,Cc1cc(NCc2ccc(-c3ccccc3-c3nnn(C(c4ccccc4)(c4ccccc4)c4ccccc4)n3)cc2)c(I)c(C)n1,209 to 211
21,CCOc1ccc(C(C)=O)cc1C(=O)OC,50 to 55
22,COc1ccc(Cl)cc1-c1c(N)c(=O)[nH]c2cc([N+](=O)[O-])ccc12,293 to 295
23,C=C(C(=O)O)c1ccc2c(=O)c3ccccc3ccc2c1,232 to 235
24,COc1cn(-c2ccc(N3CCOCC3=O)cc2F)nc(-c2ccnn2-c2ccccc2)c1=O,193 to 195
25,CC(=O)n1ccc2c(I)ncnc21,123 to 124

row,SMILES,melting point [°C]
1,COC(=O)c1c(-c2ccccc2)oc2c(CCl)cccc2c1=O,150
2,Cc1cc2c(cc1-c1cc(-c3ccc(C(=O)O)cc3)ccc1-c1ccccc1)C(C)(C)CCC2(C)C,217
3,O=C(O)C1=CC(CF)(CF)Oc2ccc(C(F)(F)C(F)(F)C(F)(F)F)cc21,162 to 163
4,CCn1nc(C)c2c1C1=NC(C)CN1C(C)=N2 (stereo not drawn),145 to 147
5,Nc1cc(Cl)cc(Cl)c1I,61 to 63
6,N#CC(C#N)=C(NCC(=O)O)Nc1cc(Cl)cc(Cl)c1,103
7,COc1ccc(OCc2ccccn2)cc1/C=C/c1cc(/C=C/c2ccc3[nH]ccc3c2)n[nH]1,116 to 122
8,O=C(Nc1ccc2ccc(-c3ccc(F)cc3)nc2n1)c1ccc(C(F)(F)F)cc1,198
9,COC(=O)CN1C(=S)CN=C(c2ccccc2)c2cc(Cl)ccc21,180 to 182
10,CCC(c1oc2ccccc2c(=O)c1-c1ccc(F)cc1)n1cnc2c(N)ncnc21 (stereo not drawn),223 to 227
11,O=C(O)c1ccccc1OCCN1CCC(c2cn(CCC3OCCO3)c3ccccc23)CC1,118 to 120
12,CN(C)CCOc1cccc(CC(Nc2cc(-c3ccc(OCc4ccccc4)cc3)ncn2)C(=O)O)c1 (stereo not drawn),143
13,CC(C)(CO)CNc1cc(C(c2cc(F)ccc2F)S(=O)(=O)c2ccc(Cl)cc2)c(Cl)cn1 (stereo not drawn),176 to 178
14,COc1ccc2c(c1)c(CC(=O)NN)cn2Cc1ccccc1,143 to 144
15,O=CNNc1ccc(NC(=S)NCc2ccccc2)cc1,152 to 154
16,CCOC(=O)C(NC(C)=O)=C(c1ccc(F)cc1)c1ccc(F)cc1,200 to 201
17,CNC(=S)n1nc(N=CN(C)C)nc1N,184 to 188
18,CCOC(=O)Cn1cc(C(=O)OCC)c(=O)c2ccccc(=O)c21,152 to 154
19,O=C(NCc1cc(C(F)(F)F)cc(C(F)(F)F)c1)c1c(-c2ccccc2)c2cccnc2c(=O)n1CCCO,129 to 130
20,Cc1noc2ncnc(NC3Cc4ccccc4C3)c12,208
21,CCCCCCCCCCCCCCCC(=O)Nc1cscc1NC(=O)CCCCCCCCCCCCCCC,107 to 109
22,COC1OCC[C@@H]1NC(=O)[C@H](CC(C)C)NC(=O)[C@H](CC(C)C)NC(=O)OCc1ccccc1 (stereo partly drawn),76 to 77
23,COc1ccc(S(=O)(=O)C=CC(=O)O)cc1,123 to 128
